Source: BindingDB's records for doi:10.1021/acs.jmedchem.7b00606 (Griffith University, 2017)

Target: Carbonic anhydrase 2 (Homo sapiens, UniProt P00918)
Assay: Binding affinity to human carbonic anhydrase 2 by surface plasmon resonance spectrometry

For `O=c1[nH]c(O)c(-c2ccccc2)[nH]1` [5-Phenyl-imidazolidine-2,4-dione], the Kd was > 2 mM.
